Measurements published in patent publication US20060293516A1, “Penicillin crystal and process for producing the same” (priority 2003, published 2006).

Legend:
[1] = Storage stability of solid CMPB at room temperature, purity by liquid chromatography; assay type: physicochemical
Protocol: Five grams of the crystalline CMPB obtained in Example 1 (purity: 100%) and 5 g of the amorphous CMPB obtained in Reference Example 1 (purity: 99.2%) were placed in respective test tubes. These test tubes were sealed and stored at room temperature (20 to 30° C.) for 1 month. The respective purities of the CMPB samples were then determined using liquid chromatography.
(§1) One gram of crystalline CMPB (purity: 97%) prepared by storing the crystalline CMPB of Example 1 for 20 days at room temperature (about 25° C.) and 1.244 g of amorphous CMPB (purity: 78%) prepared by storing the amorphous CMPB of Reference Example 1 for 20 days at room temperature (about 25° C.) were used as test samples. Each sample was placed in flasks and 10 ml dichloromethane was added to dissolve the sample. These flasks were sealed. The dichloromethane solutions of CMPB samples were stirred at room temperature (about 25° C.) and, after 3.5 hours and after 5 hours, subjected to liquid chromatography to measure the amounts of CMPB remaining in the solutions. The amounts of the remaining CMPB were compared with the amount of CMPB in the crystalline CMPB sample or the amount of CMPB in the amorphous CMPB sample, which were measured prior to the test.

[2] = Stability of CMPB in dichloromethane solution, remaining CMPB by liquid chromatography; assay type: physicochemical; conditions: stirred at room temperature (about 25° C.)
Protocol: as §1, with “The dichloromethane solutions of CMPB samples were stirred at room temperature (about 25° C.) and, after 3.5 hours and after 5 hours, subjected to liquid chromatography to measure the amounts of CMPB remaining in the solutions.” left out

[3] = sealed test tube, room temperature (20 to 30° C.), 1 month, initial purity 100% (crystalline), 99.2% (amorphous)
[4] = stored 20 days at room temperature (about 25° C.)

| SMILES | purity after storage [1, 3] [%] | purity after storage [1, 4] [%] | amount of CMPB remaining in dichloromethane solution relative to initial amount ([2]; after 3.5 hours) | amount of CMPB remaining in dichloromethane solution relative to initial amount ([2]; after 6 hours (so in the source)) [%] | amount of CMPB remaining in dichloromethane solution relative to initial amount ([2]; after 5 hours) |
| --- | --- | --- | --- | --- | --- |
| C[C@@]1(CCl)SC2CC(=O)N2[C@H]1C(=O)OC(c1ccccc1)c1ccccc1 (stereo partly drawn) [amorphous CMPB, 2β-chloromethyl-2α-methylpenam-3α-carboxylic acid benzhydryl ester] | 67 | 78 | 86.8% | 63.4 | – |
| C[C@@]1(CCl)SC2CC(=O)N2[C@H]1C(=O)OC(c1ccccc1)c1ccccc1 (stereo partly drawn) [crystalline CMPB, 2β-chloromethyl-2α-methylpenam-3α-carboxylic acid benzhydryl ester] | 95 | 97 | exactly the same as the initial amount | – | exactly the same as the initial amount |
